We go through twelve compounds from patent publication US9409952B2, “Peptide-compound cyclization method” (Chugai Seiyaku Kabushiki Kaisha, priority 2011, dated 2016).

Where two headings read alike, the source gives them in different places. Starred links: 1 amine or outer side, 2 acyl side, 3 side chain; linkers in the order of their positions; H or OH if unused. Positions of bridges follow the written chain, without caps; N, C: chain ends. Non-standard residues stand in square brackets, D forms with d. Residues, ends and D or L forms follow the SMILES beside them. *: point of attachment. Phe(4-(CH2)5CO) = O=C([C@H](Cc1ccc(CCCCCC(=O)[*:3])cc1)N[*:1])[*:2]; NMePhe(3-Cl) = CN[C@@H](Cc1cccc(Cl)c1)C(=O)O; X2 = O=C(C[C@H](N[*:1])C(F)(F)F)[*:2]; NMeF = CN[C@@H](Cc1ccccc1)C(=O)O; NMeGABA = CN(CCCC(=O)[*:2])[*:1]; NMeI = CC[C@H](C)[C@H](NC)C(=O)O; NMeβAla = CN(CCC(=O)[*:2])[*:1]; NMeL = CN[C@@H](CC(C)C)C(=O)O; NMeS = CN[C@@H](CO)C(=O)O; NMeA = CN[C@@H](C)C(=O)O; Piperidide = C1CCN(*)CC1; Abu = CC[C@H](N)C(=O)O; Sar = CNCC(=O)O; tBu = CC(C)(C)*

The nature of data set [1]: Metabolic stability in human hepatic microsome. The following applies: microsomes. Type of data set: in vitro ADME.
The nature of data set [2]: PAMPA (parallel artificial membrane permeability assay). Type of data set: in vitro ADME. The following applies: PAMPA. A digest of the protocol:
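Artificial membrane was 10% (w/v) egg lecithin plus 0.5% (w/v) cholesterol in dodecane on a PVDF filter. A 10 mM DMSO stock was added at 0.5% (v/v) to donor buffer (50 mM MOPSO, pH 6.5, 5.0% glycocholic acid). After 18 h at 37 °C, LC/MS or LC/UV gave donor and acceptor levels for Pe.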
In general terms: The PAMPA barrier holds no transporters, so it reflects passive diffusion.

The mark [3] stands for this setting: pH 7.4, human hepatic microsome, NADPH(+), read-out: CL NADPH(+).
[4] abbreviates: membrane permeation rate (Pe), 50 mM MOPSO buffer pH 6.5 with 5.0% glycocholic acid, 37° C., 18 hours, read-out: iPAMPA Pe.

Regarding `CC(C)C[C@@H]1NC(=O)[C@@H](C(C)C)NC(=O)C[C@@H](C(=O)N2CCCCC2)NC(=O)[C@H](Cc2ccccc2)N(C)C(=O)[C@H](CC(C)C)N(C)C(=O)[C@H](Cc2ccccc2)NC(=O)[C@H](C)N(C)C(=O)[C@H]([C@@H](C)O)NC1=O` [DP-701] ([dV]LT[NMeA]F[NMeL][NMeF]D-Piperidide; lactam N-8), the microsomal CLint at 1 uM in data set [1] (setting [3]) turned out to be 69 µL/min/mg. Moreover, the Papp at 18 hours, 50 µM in data set [2] (setting [4]) is 31 ×10⁻⁶ cm/s.

As to `CC[C@H](C)[C@@H]1NC(=O)[C@H](Cc2ccccc2)N(C)C(=O)[C@@H](C)NC(=O)C[C@@H](C(=O)N(C)[C@@H](CC(C)C)C(=O)NCC(=O)N(C)[C@@H](CC(C)C)C(=O)N[C@@H](C)C(=O)N2CCCCC2)NC(=O)[C@H](C(C)C)NC(=O)CN(C)C(=O)[C@H]([C@@H](C)O)NC1=O` [DP-568] ([dA][NMeF]IT[Sar]VD[NMeL]G[NMeL]A-Piperidide; lactam N-7), the microsomal CLint at 1 uM in data set [1] (setting [3]) amounted to 30 µL/min/mg. In addition, the Papp at 18 hours, 50 µM in data set [2] (setting [4]) amounted to 4.4 ×10⁻⁶ cm/s.

With `CC[C@H](C)[C@H]1C(=O)N[C@@H](C)C(=O)N(C)[C@@H](CC(C)C)C(=O)N(C)[C@@H](Cc2ccccc2)C(=O)N[C@@H]([C@@H](C)O)C(=O)N(C)[C@@H](C)C(=O)N(C)[C@@H](CC(C)C)C(=O)N(C)[C@@H](Cc2ccccc2)C(=O)N[C@H](C(=O)N(C)[C@@H](Cc2ccccc2)C(=O)N[C@@H](C)C(=O)N2CCCCC2)CC(=O)N(C)CC(=O)N(C)[C@@H](CC(C)C)C(=O)N1C` [DP-284] ([Sar][NMeL][NMeI]A[NMeL][NMeF]T[NMeA][NMeL][NMeF]D[NMeF]A-Piperidide; lactam N-11), the microsomal CLint at 1 uM in data set [1] (human, pH 7.4, CL NADPH(+)) was 11 µL/min/mg. In data set [2] (pH 6.5), this compound registered a Papp at 18 hours, 50 µM of 0.21 ×10⁻⁶ cm/s.

For the compound `CC[C@H](C)[C@@H]1NC(=O)[C@H](CC(C)C)N(C)C(=O)[C@H](Cc2cccc(Cl)c2)N(C)C(=O)[C@H](Cc2ccccc2)NC(=O)[C@H](CC(C)C)N(C)C(=O)[C@H](C)N(C)C(=O)[C@H]([C@@H](C)O)NC(=O)[C@H](C)N(C)C(=O)C[C@@H](C(=O)N[C@H](C(=O)N(C)[C@@H](CC(C)C)C(=O)N(C)[C@@H](Cc2ccccc2)C(=O)N[C@H](C(=O)N2CCCCC2)[C@@H](C)CC)[C@@H](C)CC)NC(=O)[C@H](C(C)C)NC1=O` [DP-946] ([NMeA]T[NMeA][NMeL]F[NMePhe(3-Cl)][NMeL]IVDI[NMeL][NMeF]I-Piperidide; lactam N-10), the microsomal CLint at 1 uM in data set [1] (setting [3]) came out at 15 µL/min/mg. The Papp at 18 hours, 50 µM in data set [2] (setting [4]) came to 0.1 ×10⁻⁶ cm/s.

As for `CC[C@H](C)[C@@H]1NC(=O)CCN(C)C(=O)C[C@@H](C(=O)N2CCCCC2)NC(=O)[C@H](CC(C)C)N(C)C(=O)[C@H](Cc2ccccc2)NC(=O)[C@H](CC(C)C)N(C)C(=O)[C@H](CC(C)C)N(C)C(=O)[C@H](C)N(C)C(=O)[C@H](CC(C)C)N(C)C(=O)[C@H]([C@@H](C)O)NC(=O)[C@H](Cc2ccccc2)N(C)C(=O)[C@H](C)N(C)C(=O)[C@H](CC(C)C)N(C)C1=O` [DP-958] ([NMeβAla]I[NMeL][NMeA][NMeF]T[NMeL][NMeA][NMeL][NMeL]F[NMeL]D-Piperidide; lactam N-13), the microsomal CLint at 1 uM in data set [1] (setting [3]) worked out at 31 µL/min/mg. Besides, in data set [2] (setting [4]), the Papp at 18 hours, 50 µM stood at 0.54 ×10⁻⁶ cm/s.

For `CC(C)C[C@H]1C(=O)N[C@@H](C(C)C)C(=O)N[C@H](C(=O)N(C)[C@@H](Cc2ccccc2)C(=O)N[C@@H](C)C(=O)N2CCCCC2)CC(=O)N[C@H](C)C(=O)N(C)[C@@H](C)C(=O)N(C)[C@@H](Cc2ccccc2)C(=O)N(C)[C@@H](CC(C)C)C(=O)N[C@@H]([C@@H](C)O)C(=O)N(C)CC(=O)N1C` [DP-380] ([dA][NMeA][NMeF][NMeL]T[Sar][NMeL]VD[NMeF]A-Piperidide; lactam N-9), in data set [1] (setting [3]), the microsomal CLint at 1 uM amounted to 58 µL/min/mg. Also, the Papp at 18 hours, 50 µM in data set [2] (setting [4]) was 17 ×10⁻⁶ cm/s.

Regarding `CC[C@H](C)[C@@H]1NC(=O)CCCCCc2ccc(cc2)C[C@@H](C(=O)N2CCCCC2)NC(=O)[C@H](Cc2ccccc2)N(C)C(=O)[C@H](CC(C)C)N(C)C(=O)[C@H](C)N(C)C(=O)[C@H](Cc2ccccc2)N(C)C(=O)[C@H]([C@@H](C)O)NC(=O)[C@H](CC(C)C)N(C)C(=O)[C@H](C)N(C)C(=O)[C@H](CC(C)C)N(C)C1=O` [DP-868] (I[NMeL][NMeA][NMeL]T[NMeF][NMeA][NMeL][NMeF][Phe(4-(CH2)5CO)]-Piperidide; lactam N-10), in data set [1] (setting [3]), the microsomal CLint at 1 uM is 61 µL/min/mg. The Papp at 18 hours, 50 µM in data set [2] (setting [4]) turned out to be 0.24 ×10⁻⁶ cm/s.

`CC(C)C[C@H]1C(=O)N[C@@H](C(C)C)C(=O)N[C@H](C(=O)N(C)[C@@H](Cc2ccccc2)C(=O)N(C)[C@@H](Cc2ccccc2)C(=O)N[C@@H](C)C(=O)N2CCCCC2)CC(=O)N(C)CC(=O)N(C)[C@@H](CC(C)C)C(=O)N(C)[C@@H](Cc2ccccc2)C(=O)N[C@@H]([C@@H](C)O)C(=O)N(C)[C@@H](C)C(=O)N(C)CC(=O)N1C` [DP-407] ([Sar][NMeL][NMeF]T[NMeA][Sar][NMeL]VD[NMeF][NMeF]A-Piperidide; lactam N-9): in data set [1] (setting [3]), the microsomal CLint at 1 uM was found to be 29 µL/min/mg. The Papp at 18 hours, 50 µM in data set [2] (setting [4]) was found to be 38 ×10⁻⁶ cm/s.

On to `CC[C@@H]1NC(=O)[C@H](CO)N(C)C(=O)[C@H](CC(C)C)N(C)C(=O)[C@H](CC(C)C)N(C)C(=O)[C@H](CC(C)C)N(C)C(=O)[C@@H](C)NC(=O)[C@H](C)NC(=O)[C@H](CC(C)C)N(C)C(=O)[C@H](CC)NC(=O)[C@H](CC(C)C)N(C)C(=O)C[C@@H](C(F)(F)F)NC1=O` [DP-655] (cyclo(A[dA][NMeL][NMeL][NMeL][NMeS][Abu][X2][NMeL][Abu][NMeL])), for which the microsomal CLint at 1 uM in data set [1] (setting [3]) came out at 62 µL/min/mg. For the same compound, the Papp at 18 hours, 50 µM in data set [2] (setting [4]) worked out at 34 ×10⁻⁶ cm/s.

On to `CC[C@H](C)[C@@H]1NC(=O)[C@@H]2CCCN2C(=O)[C@H]([C@@H](C)O)NC(=O)[C@H](Cc2ccccc2)NC(=O)CNC(=O)[C@H](Cc2ccccc2)N(C)C(=O)[C@H](CC(C)C)NC(=O)[C@H](CC(C)C)N(C)C(=O)[C@H](CC(C)C)N(C)C(=O)CCCN(C)C(=O)C[C@@H](C(=O)N2CCCCC2)NC1=O` [DP-113] ([NMeGABA][NMeL][NMeL]L[NMeF]GFTPID-Piperidide; lactam N-11), for which the microsomal CLint at 1 uM in data set [1] (human, pH 7.4, CL NADPH(+)) worked out at 84 µL/min/mg. In addition, the Papp at 18 hours, 50 µM in data set [2] (pH 6.5) stood at 28 ×10⁻⁶ cm/s.

As for `CC(C)C[C@H]1C(=O)N[C@H](C(=O)N2CCCCC2)CC(=O)N[C@H](C)C(=O)N(C)[C@@H](Cc2ccccc2)C(=O)N(C)[C@@H](CC(C)C)C(=O)N[C@@H]([C@@H](C)O)C(=O)N(C)[C@@H](CC(C)C)C(=O)N[C@@H](COC(C)(C)C)C(=O)N1C` [DP-684] ([dA][NMeF][NMeL]T[NMeL]S(tBu)[NMeL]D-Piperidide; lactam N-8), in data set [1] (setting [3]), the microsomal CLint at 1 uM is 126 µL/min/mg. In data set [2] (setting [4]), the Papp at 18 hours, 50 µM was 23 ×10⁻⁶ cm/s.

In the case of `CC[C@H](C)[C@@H]1NC(=O)[C@H](CC(C)C)NC(=O)[C@H](C)N(C)C(=O)[C@H](CC(C)C)N(C)C(=O)[C@H](CC(C)C)NC(=O)[C@H](Cc2cccc(Cl)c2)N(C)C(=O)[C@H]([C@@H](C)O)NC(=O)[C@H](C)N(C)C(=O)[C@H](C(C)C)NC(=O)[C@H](C)N(C)C(=O)C[C@@H](C(=O)N(C)[C@@H](Cc2ccccc2)C(=O)N(C)[C@@H](CC(C)C)C(=O)N[C@H](C(=O)N2CCCCC2)[C@@H](C)CC)NC1=O` [DP-950] ([NMeA]V[NMeA]T[NMePhe(3-Cl)]L[NMeL][NMeA]LID[NMeF][NMeL]I-Piperidide; lactam N-11), the microsomal CLint at 1 uM in data set [1] (setting [3]) worked out at 12 µL/min/mg. The Papp at 18 hours, 50 µM in data set [2] (setting [4]) is 0.1 ×10⁻⁶ cm/s.
